The values that follow come from patent US6350737B1, “Platinum complex, its preparation and therapeutic application” (Pliva-Lachema, A.S., priority 1998, dated 2002).

The test system of assay [1] is lymfoblastic leucaemia line CEMt. Put plainly: MTT test, human tumor line CEMt. In kind it is cell-based. The conditions noted are these: read-out: Inhibition constant IC50. Here is the method:
(§1) The MTT test was chosen for screening the effectivity of the respective compounds. The test is based on reaction of a tetrazolium salt with respirating mitochondria of living cells. The resulted insoluble formazan is solubilized and its amount is determined on a microplate reader. […] Inhibition constant (IC50) represents such a concentration of a substance which causes 50% supression of growth of a cell culture. This constant has been determined from a graph of dependence of MTT value (mitochondrial activity of cells) on the concentration of tested substance. A GraphPad Prism programme was used for determination of the constant from the measured values, whereby Boltzman sigmoid was used for constructing a curve from single experimental points.
Comparation experiments were performed on lymfoblastic leucaemia line CEMt. The MTT test was used for evaluation of cytotoxic effect.
Vitality of cells was determined by a standard spectrophotometric MTT test based on reduction of 3-(4,5-dimethylthiazol-2-yl)-2,5-diphenyltetrazolium bromide by vital cells under formation of a formazane.

For assay [2], the system named is P 815 (mastocytoma). Nature of the assay: MTT test, mice tumor line P 815. It is filed as cell-based. The following applies: P-815 line. Here is the method:
(§2) Cytostatic activity of compounds of the present invention has been tested in vitro on tumor lines. The MTT test was chosen for screening the effectivity of the respective compounds. The test is based on reaction of a tetrazolium salt with respirating mitochondria of living cells. The resulted insoluble formazan is solubilized and its amount is determined on a microplate reader. This method is being used as a standard one for evaluation of cytostatic effect of pharmaceutically active compounds (Tim Mosmann, Rapid colorimetric assay for cellular growth and survival, Application to proliferation and cytotoxicity assays, Journal of Immunological Methods, 65 (1983), 55-63). Inhibition constant (IC50) represents such a concentration of a substance which causes 50% supression of growth of a cell culture. This constant has been determined from a graph of dependence of MTT value (mitochondrial activity of cells) on the concentration of tested substance. A GraphPad Prism programme was used for determination of the constant from the measured values, whereby Boltzman sigmoid was used for constructing a curve from single experimental points. Chosen cell lines are standard lines used for routine screening of cytostatic effect of pharmacologically active compounds.
(§3) Within this example, lines P 815 (mastocytoma) and L 1210 (lymphocyte leucaernia line) were tested.

For assay [3], the system named is Ocular melanoma VUP. Put plainly: Cytotoxicity on ocular melanoma VUP. In kind it is cell-based, human. Here is the method:
as §1

Assay [4] deals with L 1210 (lymphocyte leucaernia line). Nature of the assay: MTT test, mice tumor line L 1210. In kind it is cell-based. The following applies: L-1210 line. Here is the method:
as §2, §3

Assay [5] relates to solid mammal adenocarcinoma MC 2111. Nature of the assay: Antitumor activity in vivo, single i.v. dose, survival. On the set-up: species or system Mice female DBA/1. Here is the method: Mice female DBA/1 of body mass 22.9-25.8 g were used in this experiment. Tumors were developed by s.c. inoculation of 0.2 ml of a tumor homogenate diluted in 1:1 volume ratio with an isotonic glucose solution. Tested compounds were applied in a form of an isotonic water solution prepared immediately before application by dissolution of corresponding lyophilised product in water for injections and further by dilution with isotonic sodium chloride solution ad hoc according to the need, in volumes of 0.1-0.4 ml per 20 g of body mass of an animal, as apparent from the following table.

The subject of assay [6] is lines P 815 (mastocytoma) and L 1210 (lymphocyte leucaernia line). Put plainly: MTT test, mice tumor lines (line not stated for the carboplatin value). In kind it is cell-based. Here is the method:
as §2, §3

In the case of `N.N.[Cl][Pt][Cl]` [Cisplatin, cis-diammine-dichloroplatinum(II) complex], in assay [1], the IC50 was 1.9 µM.
On to `O=C1[O][Pt]2([NH][C@@H]3CCCC[C@H]3[NH]2)[O]C1=O` [Oxaliplatin], for which the IC50 in assay [1] stood at 4.8 µM.
For the molecule “cis-(1-adamantylamine) amminedichloroplatinum (II) [LA-9]”, the IC50 in assay [1] was determined as 0.36 µM; in assay [2], 1.1 µM; in assay [3] it was 9 µM; in assay [4], 1.5 µM. Moreover, in assay [3] (IC50 comparison), the “sensibility in comparison with Carboplatin” value is “approximately ten times higher sensibility”. Besides, the “Survivors (% of control)” value in assay [5] (12 mg/kg single i.v. dose) was 410 % of control. The same molecule had an Optimum dosage in assay [5] (animals used in the tests) of 13 to 16 mg/kg.
As for `N.N.O=C([O-])C1(C(=O)[O-])CCC1.[Pt+2]` [Carboplatin, cis-diammine-/1,1-cyclobutanedicarboxylato/platinum(II) complex], the IC50 in assay [1] turned out to be 30.4 µM; in assay [6] (line not specified, both in a free form or as a complex with cyclodextrin), 105 µM; in assay [3] it was 95 µM. Also, the “activity relative to LA-9” value in assay [6] (IC50 comparison) is “approximately hundred times less active”.
